Data as given in patent publication EP4183391A1, “PHARMACEUTICAL COMPOSITION AND USE THEREOF” (Shenzhen Salubris Pharmaceuticals Co., Ltd., priority 2020, dated 2022).
Structures can show the parent of a compound that is named as a salt.

Columns and labels:
[1] = Pharmacokinetic experiments in dogs; conditions: 14 mg/kg single gavage, Day1, analyte deDM in plasma
Method: Reagents: Sodium chloride injection, EDTA-K2, acetonitrile and formic acid were commercially available.
Instrument: AB SCIEX 5500 triple quadrupole mass spectrometer.
18 Beagle dogs, half male and half female, weighing 6 kg-10 kg, were purchased from Jiangsu Yadong Experimental Animal Research Institute Co., Ltd.
After single gavage administration in dogs, about 1 mL of blood was collected with a scalp needle from a vein in the forelimb or hindlimb at 0 min (before administration), 5 min, 15 min, 30 min, 1 h, 2 h, 4 h, 8 h and 24 h in a blood collection tube containing EDTA-K2 anticoagulant and then centrifuged at 4000 rpm for 10 min to separate the plasma which was stored at ≤- 65°C for testing.
The standard curve concentrations of dextromethorphan in plasma were 1 ng/mL, 2 ng/mL, 10 ng/mL, 50 ng/mL, 200 ng/mL, 400 ng/mL, 600 ng/mL and 1000 ng/mL and QC concentrations were 3 ng/mL, 30 ng/mL, 500 ng/mL and 800 ng/mL.

[2] = test system: male ICR mice; assay: Mouse tail suspension model; assay type: in vivo; conditions: immobility time
Method: 110 male ICR mice were accommodated in the experimental environment for 3 days prior to the test, with 10 animals reserved for future use.
According to the experimental design, the mice were randomly grouped according to their body weight at one day before administration.
The time of initiation of administration was defined as 0 min.
The 2 cm tail end of the mouse was attached to a horizontal metal stick so that the mouse was suspended and the immobility time period of the mouse was observed and recorded over a period of 6 min. The last 4 min of immobility time period was recorded by a timer and was used for data analysis.
Excel software was used to collect data. Data were analyzed using Prism (Graphpad software, Inc.) software, in which variance between two groups was analyzed using the t-test method, and one-way ANOVA with additional Dunnett's multiple comparison test was performed among each animal group. p<0.05 is considered as having a significant difference.

[3] = test system: male C57BL/6J mice; assay: Relieving a cough in mice, concentrated ammonia steam (Example 5); assay type: in vivo; conditions: 60 min
Method: Ammonium Hydroxide, ACS Reagent, 28.0-30.0% NH3, AI LAN (Shanghai) Chemical Technology Co., Ltd., batch no. CEC1070004. Ultrasonic Nebulizer WH-2000, Guangdong Yuehua Medical Equipment Factory Co., Ltd.
88 male C57BL/6J mice, weighing 20-22 g, were purchased from Beijing Vital River Laboratory Animal Technology Co., Ltd.
Mice in each group were administered with 1 dose of the corresponding experimental drugs to be tested in a volume of 10 ml/kg. After 60 min of administration, the mice were placed in an inverted 600 ml beaker filled with concentrated ammonia saturated steam and immediately timed for 10 s, and then the mice were removed and placed in another inverted 600 ml beaker to observe the coughing of the mice and recorded the total coughs within 5 min.
All experimental data are expressed as means. Statistical analysis was carried out using Graphad Prism 5 software. One-way ANOVA test was used for comparison between groups. SNK was used for comparison between groups with equal variance. Dunnett's T3 was used for comparison between groups with unequal variance. P < 0.05 indicated statistical significance.

deuterated dextromethorphan hydrobromide monohydrate [deDM]
AUClast ([1]; Female): 153 h^∗ng/ml
Cmax ([1]; Female): 60 ng/mL
AUClast ([1]; Male): 383 h^∗ng/ml
Cmax ([1]; Male): 157 ng/mL
Inhibition rate ([2]; 10 mg/kg oral): 5.0%
Inhibition rate ([2]; 12 mg/kg oral): 2.1%
Inhibition rate ([2]; 15 mg/kg oral): 5.9%
Inhibition rate ([2]; 18 mg/kg oral): 4.1%

[2H]C([2H])([2H])Oc1ccc2c(c1)[C@]13CCCC[C@@H]1[C@H](C2)N(C([2H])([2H])[2H])CC3 [Deuterated dextromethorphan]
Cough inhibition rate% ([3]; 3 mg/kg): 11.6%
Cough inhibition rate% ([3]; 12 mg/kg): 22.5%

CC(NC(C)(C)C)C(=O)c1cccc(Cl)c1 (stereo not drawn) [Bup, bupropion hydrochloride, reference compound]
Inhibition rate ([2]; 50 mg/kg oral): 56.00%^∗∗

CC(NC(C)(C)C)C(=O)c1cccc(Cl)c1 (stereo not drawn) [Bupropion, 1-(3-chlorophenyl)-2-[(1,1-dimethylethyl)amino]-1-propanone, reference compound]
Cough inhibition rate% ([3]; 30 mg/kg): 9.1%
